We go through five molecules from patent US20230393140A1, “BINDING ASSAYS INVOLVING A PLURALITY OF SYNTHETIC COMPOUNDS, TARGETS, AND COUNTER TARGETS” (SRI International, priority 2020, published 2023).

Test [1] has as its target T1, ASGPR (Homo sapiens, UniProt P07306).
T1 construct: purchased R&D Systems, Inc. 4394-AS
T1 sequence (P07306 1-291): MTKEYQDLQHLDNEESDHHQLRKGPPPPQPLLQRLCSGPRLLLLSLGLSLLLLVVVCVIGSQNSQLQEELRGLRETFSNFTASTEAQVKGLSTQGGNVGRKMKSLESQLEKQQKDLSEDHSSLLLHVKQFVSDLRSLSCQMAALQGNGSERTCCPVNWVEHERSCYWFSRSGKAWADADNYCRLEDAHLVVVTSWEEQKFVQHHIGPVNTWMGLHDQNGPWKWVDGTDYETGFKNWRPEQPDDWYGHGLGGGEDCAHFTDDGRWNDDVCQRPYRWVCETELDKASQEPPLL
The test can be described thus: MST binding affinity of resynthesized NNP hits to ASGPR. As to conditions: read-out: KD (nM) [95% conf. int]; MST; NNP1 library hit; target ASGPR; one-site binding model. How it is done: (§1) Hit binding affinity to various targets were determined using Microscale Thermophoresis (MST). MST experiments were performed on a Monolith NT.115pico (NanoTemper Technologies GmbH, Munich, Germany). Measurements were performed at room temperature, in triplicate with incubation periods of 15, 30 and 45 minutes. […] Targets were labeled using Nanotemper Monolith 2nd Generation Protein Labeling Kits. RED-MALEIMIDE (Maleimide-647-dye) labeling kit was used for K-Ras and RED-NHS (NHS-647-dye) labeling kit was used for IL-6, IL-6R, TNFα and ASGPR. The buffer for the ASGPR contained 20 mM HEPES pH 7.4, 150 mM NaCl, 10 mM MgCl2, 2 mM CaCl2, 0.05% Pluronic F-127, and 1 mM DTT; for IL-6 contained 20 mM HEPES pH 7.4, 150 mM KCl, 10 mM MgCl2, and 0.1% Pluronic F-127; for the soluble IL-6 receptor 20 mM HEPES pH 7.4, 150 mM NaCl, 10 mM MgCl2, and 0.05% Tween-20; for K-Ras 20 mM HEPES pH 7.4, 150 mM NaCl, 10 mM MgCl2, 0.05% Tween-20 and 1 mM DTT; for TNFα 10 mM HEPES pH 7.4, 150 mM NaCl, 10 mM MgCl2, 0.05% Polysorbate-20. Triplicate data was analyzed using MO.AffinityAnalysis software (NanoTemper Technologies GmbH).

Test [2] concerns the target T2, IL-6R (Homo sapiens, UniProt P08887).
T2 construct: purchased Creative Biomart IL6R-584H
T2 sequence (P08887 20-355 limits assumed): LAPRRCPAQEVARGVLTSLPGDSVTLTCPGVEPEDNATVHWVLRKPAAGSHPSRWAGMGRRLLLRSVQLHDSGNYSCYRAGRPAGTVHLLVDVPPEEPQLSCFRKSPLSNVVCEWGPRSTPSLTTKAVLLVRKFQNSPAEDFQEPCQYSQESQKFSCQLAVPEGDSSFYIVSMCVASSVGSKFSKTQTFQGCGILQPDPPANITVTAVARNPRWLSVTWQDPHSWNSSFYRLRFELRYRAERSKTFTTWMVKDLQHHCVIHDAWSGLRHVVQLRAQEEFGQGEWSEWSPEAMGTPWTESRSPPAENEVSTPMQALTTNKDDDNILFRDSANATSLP
The test can be described thus: MST binding affinity of resynthesized NNP hits to IL-6R. As to conditions: MST; NNP2 library hit; target SIL-6R; one-site binding model. How it is done: as §1

Numbered stars: 1 amine (or outer) side, 2 acyl side, 3 side chain; on linkers, the order of the positions; unused ones are H or OH. Square brackets hold non-standard residues; d marks the D form. Peptide text beside a SMILES is read from it. * marks the point of attachment. 5FAM = O=C1OC2(c3ccc(O)cc3Oc3cc(O)ccc32)c2ccc(C(=O)*)cc21; NHCH2C6H4(4-CH2CONH2) = NC(=O)Cc1ccc(CN*)cc1; X1 = O=C(Cc1ccc(CN[*:1])cc1)[*:2]

`CC(C)C[C@H](NC(=O)[C@@H](CCCNC(=N)N)NC(=O)[C@@H](CCCCN)NC(=O)[C@@H](CCC(=O)O)NC(=O)[C@@H](Cc1ccccc1)NC(=O)Cc1ccc(CNC(=O)[C@H](Cc2ccccc2)NC(=O)[C@@H](CO)NC(=O)[C@@H](CCC(=O)O)NC(=O)[C@H]2CCCN2C(=O)[C@@H](CC(C)C)NC(=O)c2ccc3c(c2)C(=O)OC32c3ccc(O)cc3Oc3cc(O)ccc32)cc1)C(=O)NCc1ccc(CC(=O)NCC(=O)N2CCC[C@@H]2C(=O)N[C@H](CCCNC(=N)N)C(=O)N[C@H](CO)C(=O)N[C@@H](Cc2ccccc2)C(=O)NCc2ccc(CC(=O)N3CCC[C@@H]3C(=O)N[C@H](CCCCN)C(=O)N[C@H](Cc3ccc(O)cc3)C(=O)N[C@H](CCCNC(=N)N)C(=O)N[C@@H](Cc3ccccc3)C(=O)NCc3ccc(CC(=O)N[C@H](CCCNC(=N)N)C(=O)N[C@H](Cc4ccccc4)C(=O)N4CCC[C@@H]4C(=O)N[C@@H](C(=O)NCC(=O)NCc4ccc(CC(=O)N[C@H](CC(C)C)C(=O)N5CCC[C@@H]5C(=O)N[C@H](CCCNC(=N)N)C(=O)N[C@@H](C(=O)NCC(=O)NCc5ccc(CC(N)=O)cc5)[C@H](C)O)cc4)C(C)C)cc3)cc2)cc1` [ASGPR-9-3] (5FAM-[dL][dP][dE][dS]F[X1][dF][dE][dK][dR]L[X1]G[dP][dR][dS]F[X1][dP][dK][dY][dR]F[X1][dR][dF][dP][dV]G[X1][dL][dP][dR][dT]G-{NHCH2C6H4(4-CH2CONH2)}): in test [1], the Kd came out at 330 nM. As to `CC(C)C[C@H](NC(=O)[C@@H](Cc1c[nH]cn1)NC(=O)[C@@H](CC(C)C)NC(=O)[C@H]1CCCN1C(=O)[C@@H](CC(N)=O)NC(=O)Cc1ccc(CNC(=O)[C@H](Cc2ccccc2)NC(=O)[C@@H](Cc2c[nH]cn2)NC(=O)[C@@H](CCCNC(=N)N)NC(=O)[C@@H](CC(N)=O)NC(=O)[C@@H](Cc2ccc(O)cc2)NC(=O)Cc2ccc(CNC(=O)[C@H](CC(C)C)NC(=O)[C@@H](CCCNC(=N)N)NC(=O)[C@@H](CCCCN)NC(=O)[C@@H](CCC(=O)O)NC(=O)[C@@H](Cc3ccccc3)NC(=O)Cc3ccc(CNC(=O)[C@H](Cc4ccccc4)NC(=O)[C@@H](CO)NC(=O)[C@@H](CCC(=O)O)NC(=O)[C@H]4CCCN4C(=O)[C@@H](CC(C)C)NC(=O)c4ccc5c(c4)C(=O)OC54c5ccc(O)cc5Oc5cc(O)ccc54)cc3)cc2)cc1)C(=O)NCc1ccc(CC(=O)N[C@H](CCCNC(=N)N)C(=O)N[C@H](Cc2ccccc2)C(=O)N2CCC[C@@H]2C(=O)N[C@@H](C(=O)NCC(=O)NCc2ccc(CC(=O)N[C@H](CC(C)C)C(=O)N3CCC[C@@H]3C(=O)N[C@H](CCCNC(=N)N)C(=O)N[C@@H](C(=O)NCC(=O)NCc3ccc(CC(N)=O)cc3)[C@H](C)O)cc2)C(C)C)cc1` [ASGPR-9-10] (5FAM-[dL][dP][dE][dS]F[X1][dF][dE][dK][dR]L[X1][dY][dN][dR][dH]F[X1][dN][dP][dL][dH]L[X1][dR][dF][dP][dV]G[X1][dL][dP][dR][dT]G-{NHCH2C6H4(4-CH2CONH2)}), the Kd in test [1] worked out at 97 nM. Turning to `CC(C)C[C@H](NC(=O)[C@@H](CCCNC(=N)N)NC(=O)[C@@H](CCCCN)NC(=O)[C@@H](CCC(=O)O)NC(=O)[C@@H](Cc1ccccc1)NC(=O)Cc1ccc(CNC(=O)[C@H](Cc2ccccc2)NC(=O)[C@@H](CO)NC(=O)[C@@H](CCC(=O)O)NC(=O)[C@H]2CCCN2C(=O)[C@@H](CC(C)C)NC(=O)c2ccc3c(c2)C(=O)OC32c3ccc(O)cc3Oc3cc(O)ccc32)cc1)C(=O)NCc1ccc(CC(=O)N[C@H](Cc2ccc(O)cc2)C(=O)N[C@H](CC(N)=O)C(=O)N[C@H](CCCNC(=N)N)C(=O)N[C@H](Cc2c[nH]cn2)C(=O)N[C@@H](Cc2ccccc2)C(=O)NCc2ccc(CC(=O)N[C@H](Cc3ccc(O)cc3)C(=O)N[C@@H](C(=O)N3CCC[C@@H]3C(=O)N[C@H](CCCNC(=N)N)C(=O)N[C@@H](C)C(=O)NCc3ccc(CC(=O)N[C@H](CCCNC(=N)N)C(=O)N[C@H](Cc4ccccc4)C(=O)N4CCC[C@@H]4C(=O)N[C@@H](C(=O)NCC(=O)NCc4ccc(CC(=O)N[C@H](CC(C)C)C(=O)N5CCC[C@@H]5C(=O)N[C@H](CCCNC(=N)N)C(=O)N[C@@H](C(=O)NCC(=O)NCc5ccc(CC(N)=O)cc5)[C@H](C)O)cc4)C(C)C)cc3)[C@H](C)O)cc2)cc1` [ASGPR-9-12] (5FAM-[dL][dP][dE][dS]F[X1][dF][dE][dK][dR]L[X1][dY][dN][dR][dH]F[X1][dY][dT][dP][dR]A[X1][dR][dF][dP][dV]G[X1][dL][dP][dR][dT]G-{NHCH2C6H4(4-CH2CONH2)}), in test [1], the Kd is 6 nM. With `CC(C)C[C@H](NC(=O)[C@@H](CCCNC(=N)N)NC(=O)[C@@H](CCCCN)NC(=O)[C@@H](CCC(=O)O)NC(=O)[C@@H](Cc1ccccc1)NC(=O)Cc1ccc(CNC(=O)[C@H](Cc2ccccc2)NC(=O)[C@@H](CO)NC(=O)[C@@H](CCC(=O)O)NC(=O)[C@H]2CCCN2C(=O)[C@@H](CC(C)C)NC(=O)c2ccc3c(c2)C(=O)OC32c3ccc(O)cc3Oc3cc(O)ccc32)cc1)C(=O)NCc1ccc(CC(=O)N[C@H](Cc2c[nH]cn2)C(=O)N[C@H](CO)C(=O)N2CCC[C@@H]2C(=O)N[C@H](CCCNC(=N)N)C(=O)N[C@H](C(=O)NCc2ccc(CC(=O)N3CCC[C@@H]3C(=O)N[C@H](CCCCN)C(=O)N[C@H](Cc3ccc(O)cc3)C(=O)N[C@H](CCCNC(=N)N)C(=O)N[C@@H](Cc3ccccc3)C(=O)NCc3ccc(CC(=O)N[C@H](CCCNC(=N)N)C(=O)N[C@H](Cc4ccccc4)C(=O)N4CCC[C@@H]4C(=O)N[C@@H](C(=O)NCC(=O)NCc4ccc(CC(=O)N[C@H](CC(C)C)C(=O)N5CCC[C@@H]5C(=O)N[C@H](CCCNC(=N)N)C(=O)N[C@@H](C(=O)NCC(=O)NCc5ccc(CC(N)=O)cc5)[C@H](C)O)cc4)C(C)C)cc3)cc2)C(C)C)cc1` [ASGPR-9-7] (5FAM-[dL][dP][dE][dS]F[X1][dF][dE][dK][dR]L[X1][dH][dS][dP][dR]V[X1][dP][dK][dY][dR]F[X1][dR][dF][dP][dV]G[X1][dL][dP][dR][dT]G-{NHCH2C6H4(4-CH2CONH2)}), the Kd in test [1] is 150 nM.

In turn, `CC(C)C[C@H](NC(=O)[C@@H](CCCNC(=N)N)NC(=O)[C@@H](C)NC(=O)Cc1ccc(CNC(=O)[C@H](Cc2ccccc2)NC(=O)[C@@H](CCC(=O)O)NC(=O)[C@H]2CCCN2C(=O)Cc2ccc(CNC(=O)[C@H](Cc3ccccc3)NC(=O)[C@@H](CCCCN)NC(=O)[C@@H](C)NC(=O)Cc3ccc(CNC(=O)[C@H](CC(C)C)NC(=O)[C@@H](CCCNC(=N)N)NC(=O)[C@@H](Cc4c[nH]c5ccccc45)NC(=O)Cc4ccc(CNC(=O)[C@H](C)NC(=O)[C@@H](CCCCN)NC(=O)[C@H]5CCCN5C(=O)Cc5ccc(CNC(=O)[C@@H](NC(=O)[C@@H](CC(N)=O)NC(=O)[C@H]6CCCN6C(=O)Cc6ccc(CNC(=O)[C@H](Cc7ccccc7)NC(=O)[C@@H](Cc7c[nH]c8ccccc78)NC(=O)[C@@H](CCCNC(=N)N)NC(=O)c7ccc8c(c7)C(=O)OC87c8ccc(O)cc8Oc8cc(O)ccc87)cc6)C(C)C)cc5)cc4)cc3)cc2)cc1)C(=O)NCc1ccc(CC(=O)N[C@H](Cc2c[nH]c3ccccc23)C(=O)N[C@H](CCCCN)C(=O)N[C@@H](CC(C)C)C(=O)NCc2ccc(CC(=O)N[C@H](Cc3ccccc3)C(=O)N[C@H](CCCCN)C(=O)NCC(=O)NCc3ccc(CC(N)=O)cc3)cc2)cc1` [IL6R-87-6, Fluorescein-(D)Arg-(D)Trp-(L)Phe-PAM-(D)Pro-(D)Asn-(L)Val-PAM-(D)Pro-(D)Lys-(L)Ala-PAM-(D)Trp-(D)Arg-(L)Leu-PAM-(D)Ala-(D)Lys-(L)Phe-PAM-(D)Pro-(D)Glu-(L)Phe-PAM-(D)Ala-(D)Arg- (L)Leu-PAM-(D)Trp-(D)Lys-(L)Leu-PAM-(D)Phe-(D)Lys-Gly-PAM] (5FAM-[dR][dW]F[X1][dP][dN]V[X1][dP][dK]A[X1][dW][dR]L[X1][dA][dK]F[X1][dP][dE]F[X1][dA][dR]L[X1][dW][dK]L[X1][dF][dK]G-{NHCH2C6H4(4-CH2CONH2)}) yielded a Kd in test [2] of 3.3 nM.

As usually defined, the Kd is the concentration at which binding is half-saturated.
